Reference: the supplement of paper PMC8671470

Experiments:
Settings in all cases: 72 h
BV-173 [1] = system: BV-173
In short: (§1)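 In 384-well plates holding acoustically pre-printed compounds at five tenfold doses from 1 to 10,000 nM, in duplicate, fifteen myeloid leukaemia cell lines were grown in RPMI 1640 for 72 h at 37 °C with 5% CO2. Luminescent ATP viability was scaled between vehicle and a positive control at 10 µM. The IC50 was then taken from log-logistic dose–response fits with four parameters.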

HEL [2] = system: HEL
In short: as §1

HL-60 [3] = system: HL-60
In short: as §1

K-562 [4] = system: K-562
In short: as §1

KCL-22 [5] = system: KCL-22
In short: as §1

KG-1 [6] = system: KG-1
In short: as §1

KU-812 [7] = system: KU-812
In short: as §1

LAMA-84 [8] = system: LAMA-84
In short: as §1

ML-2 [9] = system: ML-2
In short: as §1

MOLM-13 [10] = system: MOLM-13
In short: as §1

MV4-11 [11] = system: MV4-11
In short: as §1

Mono-Mac-6 [12] = system: Mono-Mac-6
In short: as §1

NOMO-1 [13] = system: NOMO-1
In short: as §1

SHI-1 [14] = system: SHI-1
In short: as §1

THP-1 [15] = system: THP-1
In short: as §1

BV-173 [16] = assay: cell viability (% survival relative to DMSO control, bortezomib = 0%); higher = less cytotoxic
In short: (§2)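 After 72 h at 37 °C with 5% CO2, cell viability in 384-well plates was measured by CellTiter-Glo luminescence. The plates held compounds pre-printed at 1, 10, 100, 1000 or 10000 nM in duplicate, and cells from 10 AML and 5 CML lines seeded at densities titrated to linear growth. Percent survival is the duplicate mean, normalised to vehicle as 100% and a 10 µM positive control as 0%.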

HEL [17] = assay: as above
In short: as §2

HL-60 [18] = assay: as above
In short: as §2

K-562 [19] = assay: as above
In short: as §2

KCL-22 [20] = assay: as above
In short: as §2

KG-1 [21] = assay: as above
In short: as §2

KU-812 [22] = assay: as above
In short: as §2

LAMA-84 [23] = assay: as above
In short: as §2

ML-2 [24] = assay: as above
In short: as §2

MOLM-13 [25] = assay: as above
In short: as §2

MV4-11 [26] = assay: as above
In short: as §2

Mono-Mac-6 [27] = assay: as above
In short: as §2

NOMO-1 [28] = assay: as above
In short: as §2

SHI-1 [29] = assay: as above
In short: as §2

THP-1 [30] = assay: as above
In short: as §2

Cn1cc(-c2ccncc2)c(-c2ccc(OCc3ccc4ccccc4n3)cc2)n1
Settings | IC50 (cell viability) [µM]
BV-173 [1] | > 10
HEL [2] | 9.86
HL-60 [3] | > 10
K-562 [4] | > 10
KCL-22 [5] | > 10
KG-1 [6] | > 10
KU-812 [7] | 8.42
LAMA-84 [8] | > 10
ML-2 [9] | > 10
MOLM-13 [10] | 1.74
MV4-11 [11] | 2.09
Mono-Mac-6 [12] | > 10
NOMO-1 [13] | > 10
SHI-1 [14] | > 10
THP-1 [15] | > 10

cell viability [%]
Settings | 1 nM | 10 nM | 100 nM | 1000 nM | 10000 nM
BV-173 [16] | 93.5 | 97.7 | 93.6 | 90.2 | 57.3
HEL [17] | 93 | 119 | 96.9 | 99.8 | 59.4
HL-60 [18] | 117 | 92.7 | 103 | 136 | 64.2
K-562 [19] | 99.5 | 109 | 106 | 98.5 | 57.9
KCL-22 [20] | 116 | 96 | 96.4 | 102 | 73.7
KG-1 [21] | 97.7 | 96.7 | 110 | 102 | 87.4
KU-812 [22] | 95.4 | 103 | 93.3 | 92.4 | 43.1
LAMA-84 [23] | 104 | 114 | 98.4 | 95.8 | 60
ML-2 [24] | 101 | 94.6 | 98.3 | 103 | 69.3
MOLM-13 [25] | 123 | 99.5 | 95.9 | 69.4 | 6.76
MV4-11 [26] | 101 | 118 | 91.5 | 76.5 | 7.29
Mono-Mac-6 [27] | 92.7 | 87.4 | 89.5 | 90.5 | 52.3
NOMO-1 [28] | 103 | 98.8 | 97 | 101 | 93.9
SHI-1 [29] | 99 | 104 | 107 | 104 | 93.7
THP-1 [30] | 92.7 | 101 | 100 | 104 | 92
